Series [1] deals with THP-1. As to the kind of experiment: Inhibition of TNF-alpha secretion in LPS-stimulated human THP1 cells assessed as TNF-alpha level at 10 uM incubated for 1 hr followed by nigericin addition and measured after 1 hr by ELISA (reference value: 957.6 pg/mL). Format: functional. (ELISA stands for enzyme-linked immunosorbent assay.)
Series [2] concerns the target T1, P2X purinoceptor 7 (Homo sapiens) (UniProt Q99572).
T1 sequence (whole entry): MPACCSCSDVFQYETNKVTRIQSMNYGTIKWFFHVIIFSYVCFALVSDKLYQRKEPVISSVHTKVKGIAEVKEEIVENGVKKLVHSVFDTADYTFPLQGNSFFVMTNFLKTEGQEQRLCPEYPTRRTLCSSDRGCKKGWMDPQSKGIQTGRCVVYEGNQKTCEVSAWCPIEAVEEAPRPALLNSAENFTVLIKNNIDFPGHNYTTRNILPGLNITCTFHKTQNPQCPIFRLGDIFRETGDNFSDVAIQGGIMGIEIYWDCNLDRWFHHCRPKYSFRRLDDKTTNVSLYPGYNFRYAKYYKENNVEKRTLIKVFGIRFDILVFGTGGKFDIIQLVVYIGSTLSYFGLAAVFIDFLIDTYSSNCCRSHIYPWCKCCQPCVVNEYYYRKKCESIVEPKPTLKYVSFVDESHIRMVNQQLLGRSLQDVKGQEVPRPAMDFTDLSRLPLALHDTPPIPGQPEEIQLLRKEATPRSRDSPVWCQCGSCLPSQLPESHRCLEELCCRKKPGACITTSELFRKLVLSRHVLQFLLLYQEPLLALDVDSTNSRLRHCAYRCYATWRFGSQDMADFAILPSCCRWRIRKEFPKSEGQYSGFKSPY
As to the kind of experiment: Modulation of P2X7 receptor in nigericin-stimulated human THP1 cells assessed as intracellular potassium efflux at 10 uM incubated for 30 mins followed by 5 uM nigericin challenge and measured after 30 mins by Green-2 AM dye based flow cytometric analysis (reference value: 27.1%). The format is cell-based. Particulars: THP-1. On the technique in general: In flow cytometry, cells or beads pass a laser one at a time.

Series [3] can be described thus: Cytotoxicity against human THP1 cells assessed as cell viability at 10 uM after 24 hrs by CellTiter-Glo luminescent cell viability assay relative to control. Format: cell-based. To be noted: THP-1 cells, read-out: Activity. A general note: ATP-based viability assays read luminescence as a measure of living cells.
Series [4] deals with NACHT, LRR and PYD domains-containing protein 3 (Homo sapiens) (UniProt Q96P20). As to the kind of experiment: Inhibition of NLRP3 inflammasome activation in LPS-stimulated human THP1 cells assessed as reduction in IL-1beta secretion at 1 uM incubated for 1 hr followed by nigericin addition and measured after 1 hr by ELISA relative to control. Format: cell-based. Particulars: THP-1.
Sequence of NACHT, LRR and PYD domains-containing protein 3 (Homo sapiens) (Q96P20 whole entry, the tested form may be a part): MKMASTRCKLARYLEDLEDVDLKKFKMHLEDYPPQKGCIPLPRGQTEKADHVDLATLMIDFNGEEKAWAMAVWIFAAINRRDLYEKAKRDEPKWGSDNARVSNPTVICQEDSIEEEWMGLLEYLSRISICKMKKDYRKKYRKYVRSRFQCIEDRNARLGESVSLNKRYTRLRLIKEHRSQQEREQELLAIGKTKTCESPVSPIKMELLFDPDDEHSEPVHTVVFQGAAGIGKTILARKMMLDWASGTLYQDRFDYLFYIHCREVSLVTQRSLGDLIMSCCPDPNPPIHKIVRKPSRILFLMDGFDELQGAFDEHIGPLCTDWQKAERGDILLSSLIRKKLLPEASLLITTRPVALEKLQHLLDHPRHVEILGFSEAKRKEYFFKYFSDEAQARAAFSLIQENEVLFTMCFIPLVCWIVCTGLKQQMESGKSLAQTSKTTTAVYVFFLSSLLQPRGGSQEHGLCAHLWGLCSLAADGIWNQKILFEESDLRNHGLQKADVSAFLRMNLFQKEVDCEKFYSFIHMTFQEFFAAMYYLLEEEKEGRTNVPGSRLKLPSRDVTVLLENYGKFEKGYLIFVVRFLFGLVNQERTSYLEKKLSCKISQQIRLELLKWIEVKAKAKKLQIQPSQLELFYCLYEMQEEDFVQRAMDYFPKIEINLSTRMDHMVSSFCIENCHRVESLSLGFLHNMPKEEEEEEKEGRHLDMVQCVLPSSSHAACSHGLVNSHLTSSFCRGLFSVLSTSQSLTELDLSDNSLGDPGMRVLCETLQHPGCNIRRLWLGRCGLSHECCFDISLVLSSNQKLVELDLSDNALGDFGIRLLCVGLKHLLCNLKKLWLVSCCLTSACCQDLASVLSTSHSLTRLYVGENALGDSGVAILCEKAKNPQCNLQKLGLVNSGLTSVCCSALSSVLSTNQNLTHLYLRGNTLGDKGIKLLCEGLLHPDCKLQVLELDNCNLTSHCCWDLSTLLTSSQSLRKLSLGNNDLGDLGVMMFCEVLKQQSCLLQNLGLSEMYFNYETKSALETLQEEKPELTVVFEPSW

The test system of series [5] is THP-1. As to the kind of experiment: Antiinflammatory activity in human THP1 cells assessed as reduction in LPS-induced IL-1beta secretion at 0.1 to 10 uM incubated for 1 hr followed by LPS stimulation and measured after 24 hrs by ELISA. Format: functional, cell-based.
Series [6] is described as follows: Cytotoxicity against human THP1 cells assessed as cell viability at 0.1 to 100 uM after 24 hrs in presence of LPS by CellTiter-Glo luminescent cell viability assay relative to control. The format is cell-based. To be noted: THP-1 cells, read-out: Activity.
The target of series [7] is T1, P2X purinoceptor 7 (Homo sapiens). As to the kind of experiment: Modulation of P2X7 receptor in LPS-stimulated human THP1 cells assessed as LPS-nigericin-stimulated intracellular potassium efflux at 10 uM incubated for 1 hr followed by nigericin challenge and measured after 1 hr by Green-2 AM dye based flow cytometric analysis (reference value: 29%). Format: cell-based. To be noted: THP-1.

Series [8] shares this target. As to the kind of experiment: Modulation of P2X7 receptor in nigericin-stimulated human THP1 cells assessed as intracellular potassium efflux at 10 uM incubated for 30 mins followed by 1 uM nigericin challenge and measured after 30 mins by Green-2 AM dye based flow cytometric analysis (reference value: 27.1%). The format is cell-based. Particulars: THP-1.
In series [9] the target is NACHT, LRR and PYD domains-containing protein 3 (Homo sapiens) (UniProt Q96P20). As to the kind of experiment: Inhibition of NLRP3 inflammasome activation in LPS-stimulated human THP1 cells assessed as reduction in IL-1beta secretion at 0.1 uM incubated for 1 hr followed by nigericin addition and measured after 1 hr by ELISA relative to control. Format: cell-based. To be noted: THP-1.

Series [10] in a line: Cytotoxicity against human THP1 cells assessed as cell viability at 100 uM after 24 hrs by CellTiter-Glo luminescent cell viability assay relative to control. To be noted: THP-1 cells, read-out: Activity. Format: cell-based.
Series [11] addresses T1, P2X purinoceptor 7 (Homo sapiens). Kind of series: Modulation of P2X7 receptor in LPS-stimulated human THP1 cells assessed as LPS-nigericin-stimulated intracellular potassium efflux at 1 uM incubated for 1 hr followed by nigericin challenge and measured after 1 hr by Green-2 AM dye based flow cytometric analysis (reference value: 29%). The format is cell-based. Particulars: THP-1.

The target in series [12] is NACHT, LRR and PYD domains-containing protein 3 (Homo sapiens) (UniProt Q96P20). Kind of series: Inhibition of NLRP3 inflammasome activation in LPS-stimulated human THP1 cells assessed as reduction in IL-1beta secretion at 10 uM incubated for 1 hr followed by nigericin addition and measured after 1 hr by ELISA relative to control. Format: cell-based. To be noted: THP-1.

Series [13] in a line: Cytotoxicity against human THP1 cells assessed as cell viability at 1 uM after 24 hrs by CellTiter-Glo luminescent cell viability assay relative to control. The format is cell-based. To be noted: THP-1 cells, read-out: Activity.
Series [14] concerns THP-1. Kind of series: Antiinflammatory activity in LPS-induced human THP1 cells assessed as IL-1beta secretion at 10 uM incubated for 1 hr followed by LPS stimulation and measured after 24 hrs by ELISA (reference value: 51.2 pg/mL). Format: functional.
Series [15] in a line: Cytotoxicity against human THP1 cells assessed as cell viability at 0.1 uM after 24 hrs by CellTiter-Glo luminescent cell viability assay relative to control. The format is cell-based. Particulars: THP-1 cells, read-out: Activity.
Series [16] has as its system THP-1. Kind of series: Modulation of intracellular calcium release in LPS-stimulated human THP1 cells at 1 to 100 uM incubated for 1 hr followed by nigericin challenge and measured after 1 hr by Fluo-3dye based flow cytometric analysis. The format is functional, cell-based.
Series [17] addresses T1, P2X purinoceptor 7 (Homo sapiens). Kind of series: Modulation of P2X7 receptor in nigericin-stimulated human THP1 cells assessed as intracellular potassium efflux at 10 uM incubated for 30 mins followed by 10 uM nigericin challenge and measured after 30 mins by Green-2 AM dye based flow cytometric analysis (reference value: 27.1%). The format is cell-based. Particulars: THP-1.

Activity calls are given as the source filed them. The calls are words filed in the database; no cut-off is given here.

As a reminder, the inhibition is the relative decrease from the control value, in per cent.

For the compound `CC(C)(O)c1coc(S(=O)(=O)NC(=O)Nc2c3c(cc4c2CCC4)CCC3)c1`, the Activity in the series on THP-1 [1] worked out at 957.6 pg/mL.
As to `C=C(C)[C@@H]1CCC(C)=C[C@H]1c1c(O)cc(CCCCC)cc1O` [CANNABIDIOL], the Activity in series [2] turned out to be 13.1%; in series [7], 16%; in the series with THP-1 [1], 661.9 pg/mL; in series [8], 16.1%; in series [11], 20%; in the series on THP-1 [14], 32.9 pg/mL. Further, the Activity in [17] came out at 12.4%. Besides, in series [3], the viability at 24 h, 10 µM worked out at 103%. Also, the results for the inhibition in [4], in series [9] and in [12] were 64.1%, 63.9% and 83.1%, respectively. In addition, the outcome with THP-1 [5] and with THP-1 [16] was inactive. In addition, the viability at 24 h, up to 100 µM in series [6] is > 97%. Also, in [10], the viability at 24 h, 100 µM came to 99.9%. Moreover, the viability at 24 h, 1 µM in [13] is 97.6%. In series [15], the viability at 24 h, 0.1 µM stood at 96.5%.
For `C=C1C(=O)[C@]23[C@H](O)[C@H]1CC[C@H]2[C@@]12CO[C@]3(O)[C@@H](O)[C@@H]1C(C)(C)CC[C@@H]2O` [ORIDONIN], in the series with THP-1 [1], the Activity amounted to 777.2 pg/mL.

The values above are taken from ChEMBL document CHEMBL4619755 (J Nat Prod, 2020).
